A short description of the data set: Exposure of DTE- or DTT-based dimers to glutathione, release of dimer phosphodiester. The format is physicochemical. The method, then: The half life of prodrug-dimer 5-2 was dependent on the character and excess of the reducing reagent (500:1/Prodrug:GSH), in this instance approximately 4 hours. The kinetics of the release was also dependent on pH and 1M TRIS hydrochloride buffers of pH values varied between 5.0 and 7.8 were used.

Molecules are shown by their SMILES.

A word on the half-life: it is how long it takes for the measured level to halve. Regarding `C#CCO[C@@H]1CSSC[C@H]1OP(=O)(OC[C@H]1O[C@@H](n2ccc(=O)[nH]c2=O)[C@H](OC)[C@@H]1OC(=O)CCC(C)=O)O[C@H]1[C@@H](OC)[C@H](n2ccc(=O)[nH]c2=O)O[C@@H]1COC(c1ccccc1)(c1ccc(OC)cc1)c1ccc(OC)cc1` (stereo partly drawn) [Compound 5-2, (2R,3R,4R,5R)-2-{[({[(2R,3R,4R,5R)-2-{[bis(4-methoxyphenyl)(phenyl)methoxy]methyl}-5-(2,4-dioxo-3,4-dihydropyrimidin-1(2H)-yl)-4-methoxytetrahydrofuran-3-yl]oxy}{[(4S,5S)-5-(prop-2-yn-1-yloxy)-1,2-dithian-4-yl]oxy}phosphoryl)oxy]methyl}-5-(2,4-dioxo-3,4-dihydropyrimidin-1(2H)-yl)-4-methoxytetrahydrofuran-3-yl 4-oxopentanoate], where the note is “1M TRIS hydrochloride buffer with glutathione (GSH), pH 7.3, 500:1/Prodrug:GSH, pH 7.30, 1M TRIS hydrochloride buffer”, the half-life was approximately 4 h. In addition, under “buffers of pH between 5.0 and 7.8”, the “release at acidic conditions” value is “considerably slower”.

These data come from patent publication US9884886B2, “Disulfide masked prodrug compositions and methods” (Merck Sharp & Dohme Corp., priority 2012, dated 2018).
